US7892778B2, “Method of screening for gamma-secretase activity” (Sanofi-Aventis Deutschland GmbH, priority 2003, dated 2011)

Columns and labels:
Assay type in all cases: cell-based, human
[1] = tested on: γ-secretase; assay: Stably transfected HEK293 cell clone (SP3-C55-GAL4/VP16 + MRG5-luciferase), luciferase activity; conditions: stably double-transfected HEK293 clone, 24 h treatment; read-out: IC50, inhibition of luciferase activity
Method: HEK293 cells (Human Embryonic Kidney cell line, (ATCC)) were co-transfected with the plasmid SP3-C55-GAL4/VP16 and the luciferase reporter plasmid PGL2-MRG5(described in Example 2).
Subsequently, stable cell lines were selected by incubation with 400 μg/ml Geneticin (GibcoBRL) to select for Neomycin resistant clones and thereafter characterized for stable expression of SP3-C55-GAL4/VP16 and luciferase.
A clone of HEK293 cells that stably express both the SP3-C55-GAL4/VP16 and the MRG5-luciferase constructs was identified according to Example 14.
For the identification of γ-secretase inhibitors, stably double-transfected HEK293 cells (see Example 14) are incubated, in Multi-Well 96 plates, in the presence of the compound(s) under investigation (e.g., compound library screening) at a concentration 10 μM or less in the assay, and luciferase activity is determined 24 hours later. Luciferase activity can be quantified with the Luciferase Assay System kit (Promega), the Bright-Glo Luciferase Assay kit (Promega), or any other method for luciferase quantification. A decrease in luciferase activity reflects a decrease in γ-secretase activity.

[2] = tested on: γ-secretase; assay: Transiently transfected HEK293 cells, Aβ in the cell medium by ELISA (4G8/6E10); conditions: HEK293 transiently co-transfected; Aβ in cell medium quantified by ELISA
Excerpt: For expression in mammalian cells, the signal peptide in SP2-C-GAL4/VP16-100 was replaced, as described in Example 8, with a mammalian signal peptide derived from the basal membrane protein BM40, which is known for high level expression (SP3; SEQ ID NO. 13). Processing of γ-secretase was monitored by quantifying the secretion of Aβ into the culture medium. The secreted Aβ was detected by a sandwich ELISA using monoclonal antibodies 6E10 and biotinylated 4G8 (Senetek PLC, Napa, Calif., USA; cf. Kim et al., 1990) as capture and detection antibodies, respectively.
(§1) HEK293 cells were co-transfected with the SP3-C55-GAL4/VP16 vector (0.03 μg) and the pGL2-MRG5 luciferase reporter vector (1 μg) in Multi-Well 12 plates.
(§2) Luciferase activity was quantified by the Bright-Glo Luciferase Assay kit (Promega). Aβ in the cell medium was quantified by ELISA, using the antibodies 4G8 and 6E10 (from Senetek), as described in Example 11. These antibodies are specific for amino acids 17-24 (4G8) and 1-17 (6E10) of the Aβ-peptide.

[3] = tested on: γ-secretase; assay: Transiently transfected HEK293 cells (SP3-C55-GAL4/VP16 + pGL2-MRG5 luciferase reporter), luciferase activity; conditions: HEK293 transiently co-transfected with SP3-C55-GAL4/VP16 vector and pGL2-MRG5 luciferase reporter vector; read-out: IC50, inhibition of luciferase activity and Aβ-production
Method: as §1, §2

SMILES | IC50 [1] | Aβ-production [2] | IC50 [3]
C[C@H](NC(=O)Cc1cc(F)cc(F)c1)C(=O)N[C@H](C(=O)OC(C)(C)C)c1ccccc1 [DAPT] | 230 nM | inhibited dose-dependently | 14 nM
CC(C)C[C@H](NC(=O)[C@H](Cc1ccccc1)C[C@@H](O)[C@H](Cc1ccccc1)NC(=O)OC(C)(C)C)C(=O)N[C@@H](Cc1ccccc1)C(N)=O [L-685,458] | 130 nM | inhibited dose-dependently | 19 nM
